This note sets out measurements from patent publication US9302996B2, “Continuous arycyclic compound” (MITSUBISHI TANABE PHARMA CORPORATION, priority 2010, dated 2016).

One assay concerns ICR mice. The experiment in a line: Triglyceride (TG) in blood plasma increase-inhibiting action due to lipid administration. Conditions: Mus musculus; male ICR mice, 5 mg/kg oral, lipid (Intralipos 20%) after 30 minutes, plasma TG 2 hours after lipid; read-out: Inhibiting rate of TG-increase in blood plasma (5 mg/kg). The format is in vivo. Here is the method:
6 to 9 weeks-old male ICR mice were fasted overnight, and Test compound suspended in 0.2% carboxymethyl cellulose solution was orally administered to the mice. A lipid (Intralipos 20%, OTSUKA PHARMACEUTICAL CO., LTD., 10 mL/kg) was orally administered after 30 minutes. Blood was collected from tail vein immediately before the lipid administration, and after 2 hours from the same to obtain blood plasma. Measurement of TG in blood plasma was carried out by using a triglyceride E Test Wako (Wako Pure Chemical Industries, Ltd.), and an increased value of TG in blood plasma by administration of the lipid was calculated. An increased value of TG in blood plasma in a solvent control group was used as a control, and an inhibiting rate in increase of TG in blood plasma in the Test compound administered group was calculated.

The next assay concerns C57BL/6J mice. The experiment in a line: Antifeeding activity (high fat diet intake up to 4 hours). It is filed as in vivo. Particulars: Mus musculus, male C57BL/6J mice, 5 mg/kg oral, food ingested up to 4 hours, read-out: Antifeeding rate (5 mg/kg). The protocol: 7 to 10 weeks-old male C57BL/6J mice were fasted overnight, and the test compound suspended in 0.2% carboxymethylcellulose solution was orally administered. Immediately after the administration, high fat diet (Oriental Yeast Co., Ltd, 60 cal % fat) was provided and freely fed. An amount of food ingested up to 4 hours was measured, and a lowering rate (an antifeeding rate) of the amount of food ingested in the Test compound administered group was calculated as compared to that of the solvent control group as a control.

As for `CCc1cnc(-c2ccc(-c3ccc(OCC(C)(C)C(=O)O)cc3)nc2)[nH]1` [Example 58-2), 3-[4-[5-(5-ethyl-1H-imidazol-2-yl)-2-pyridyl]phenoxy]-2,2-dimethylpropanoic acid], the inhibition in vivo at 5 mg/kg in the assay on ICR mice was determined as 64%; with C57BL/6J mice, 65%.
Consider `Cc1cc(OCC(C)(C)C(=O)O)ncc1-c1ccc(-c2ncc(C(F)(F)C(F)(F)F)[nH]2)c(F)c1` [Example 124], for which the inhibition in vivo at 5 mg/kg stood at 98% in the assay with ICR mice and 75% in the assay on C57BL/6J mice.
With `CC(C)(COc1cnc(-c2ccc(-c3ncc(C(F)(F)F)[nH]3)c(F)c2)cn1)C(=O)O` [Example 91], the inhibition in vivo at 5 mg/kg with ICR mice and with C57BL/6J mice was 51% throughout.
In the case of `Cc1nc(OCC(C)(C)C(=O)O)ccc1-c1ccc(-c2ncc(C(F)(F)F)[nH]2)cn1` [Example 10], the inhibition in vivo at 5 mg/kg in the assay with ICR mice and with C57BL/6J mice was 62% each time.
As to `O=C(O)C1(COc2ccc(-c3ccc(-c4ncc(C(F)(F)F)[nH]4)cn3)cc2)CC1` [Example 60-3), 1-[[4-[5-[5-(trifluoromethyl)-1H-imidazol-2-yl]-2-pyridyl]phenoxy]methyl]cyclopropanecarboxylic acid], the results for the inhibition in vivo at 5 mg/kg in the assay on ICR mice and with C57BL/6J mice were 48% and 59%, respectively.
Take `CC(C)(COc1ncc(-c2ccc(-c3ncc(C(F)(F)F)[nH]3)c(Cl)c2)cc1F)C(=O)O` [Example 82]: the results for the inhibition in vivo at 5 mg/kg in the assay on ICR mice and in the assay on C57BL/6J mice were 47% and 42%, respectively.
The corresponding values for `CC(C)(COc1ccc(-c2ccc(-c3ncc(C(F)(F)F)[nH]3)nc2)cc1)C(=O)O` [Example 68] are 64% and 63%.
Consider `O=C(O)C1(COc2ccc(-c3ccc(-c4ncc(C(F)(F)F)[nH]4)cn3)cn2)CCCC1` [Example 17], for which the figures for the inhibition in vivo at 5 mg/kg in the assay on ICR mice and in the assay on C57BL/6J mice were 69% and 82%, respectively.
The corresponding values for `Cc1cc(OCC2(C(=O)O)CCC2)ncc1-c1ccc(-c2ncc(C(F)(F)F)[nH]2)nc1` [Example 97-5), 1-[({4-methyl-6′-[5-(trifluoromethyl)-1H-imidazol-2-yl]-3,3′-bipyridin-6-yl}oxy)methyl]cyclobutanecarboxylic acid] are 102% and 92%.
The corresponding values for `CCC(CC)(COc1cc(C)c(-c2ccc(-c3ncc(C(F)(F)F)[nH]3)c(Cl)c2)cn1)C(=O)O` [Example 140] are 68% and 78%.
Turning to `CCC(CC)(COc1cc(C)c(-c2ccc(-c3ncc(C(F)(F)F)[nH]3)c(F)c2)cn1)C(=O)O` [Example 134], the inhibition in vivo at 5 mg/kg in the assay with ICR mice came out at 84%; in the assay on C57BL/6J mice, 74%.
On the same counts, the results for `Cc1cc(OCC(C)(C)C(=O)O)ncc1-c1ccc(-c2ncc(CC3CC3)[nH]2)c(Cl)c1` [Example 121] are 53% and 57%.
On to `CC(C)(COc1ccc(-c2ccc(-c3ncc(CCC4CC4)[nH]3)cn2)cc1)C(=O)O` [Example 30], for which the inhibition in vivo at 5 mg/kg with ICR mice came out at 60%; in the assay with C57BL/6J mice it was 68%.
As for `CC(C)(COc1ccc(-c2ccc(-c3ncc(C(C)(C)C(F)(F)F)[nH]3)cn2)cc1)C(=O)O` [Example 2-2), 2,2-dimethyl-3-(4-{5-[5-(2,2,2-trifluoro-1,1-dimethylethyl)-1H-imidazol-2-yl]pyridin-2-yl}phenoxy)propanoic acid], the inhibition in vivo at 5 mg/kg stood at 76% in the assay on ICR mice and 64% with C57BL/6J mice.
Take `CC(C)Cc1cnc(-c2ccc(-c3ccc(OCC(C)(C)C(=O)O)nc3)nc2)[nH]1` [Example 59]: the inhibition in vivo at 5 mg/kg in the assay on ICR mice came to 74%; in the assay with C57BL/6J mice, 50%.
On to `CC(C)(COc1ccc(-c2ccc(-c3ncc(C4CCCCC4)[nH]3)cn2)cc1)C(=O)O` [Example 56], for which the values for the inhibition in vivo at 5 mg/kg in the assay with ICR mice and in the assay with C57BL/6J mice were 61% and 76%, respectively.
On the same counts, the results for `CCC(CC)c1cnc(-c2ccc(-c3ccc(OCC(C)(C)C(=O)O)cc3)nc2)[nH]1` [Example 29] are 52% and 28%.
The corresponding values for `CC(C)(COc1ccc(-c2ccc(-c3ncc(C4CCCCCC4)[nH]3)cn2)cc1)C(=O)O` [Example 31] are 86% and 65%.
As to `Cc1cc(OCC(C)(C)C(=O)O)ncc1-c1ccc(-c2ncc(C(C)(C)C(F)(F)F)[nH]2)nc1` [Example 47], the inhibition in vivo at 5 mg/kg with ICR mice turned out to be 72%; with C57BL/6J mice it was 44%.
The corresponding values for `Cc1cc(OCC(C)(C)C(=O)O)ncc1-c1ccc(-c2ncc(C(F)(F)C(F)(F)F)[nH]2)nc1` [Example 116] are 82% and 76%.
The corresponding values for `CCc1cc(OCC(C)(C)C(=O)O)ccc1-c1ccc(-c2ncc(C(F)(F)F)[nH]2)cn1` [Example 85-4), 3-(3-ethyl-4-{5-[5-(trifluoromethyl)-1H-imidazol-2-yl]pyridin-2-yl}phenoxy)-2,2-dimethylpropanoic acid] are 69% and 70%.
For the compound `CC(C)(COc1ccc(-c2cnc(-c3ncc(C(F)(F)F)[nH]3)c(F)c2)cn1)C(=O)O` [Example 141], the figures for the inhibition in vivo at 5 mg/kg in the assay with ICR mice and in the assay on C57BL/6J mice were 82% and 55%, respectively.
On the same counts, the results for `Cc1cc(OCC2(C(=O)O)CCC2)ncc1-c1cnc(-c2ncc(C(F)(F)F)[nH]2)c(Cl)c1` [Example 99-6), 1-[({5′-chloro-4-methyl-6′-[5-(trifluoromethyl)-1H-imidazol-2-yl]-3,3′-bipyridin-6-yl}oxy)methyl]cyclobutanecarboxylic acid] are 95% and 85%.
The corresponding values for `CC(C)(COc1ccc(-c2ccc(-c3ncc(C(F)(F)F)[nH]3)cn2)cc1)CC(=O)O` [Example 65] are 75% and 79%.
Take `CC(C)(COc1ccc(-c2ccc(-c3ncc(C4(C(F)(F)F)CCC4)[nH]3)cn2)cc1)C(=O)O` [Example 88-3), sodium 2,2-dimethyl-3-[4-(5-{5-[1-(trifluoromethyl)cyclobutyl]-1H-imidazol-2-yl}pyridin-2-yl)phenoxy)propanoate]: the inhibition in vivo at 5 mg/kg came out at 65% in the assay with ICR mice and 55% in the assay on C57BL/6J mice.
On the same counts, the results for `Cc1cc(OCC2(C(=O)O)CCC2)ncc1-c1cnc(-c2ncc(C(F)(F)F)[nH]2)c(F)c1` [Example 137] are 81% and 83%.
`O=C(O)C1(COc2ccc(-c3ccc(-c4ncc(C(F)(F)F)[nH]4)cn3)cc2)CCCC1` [Example 20]: the inhibition in vivo at 5 mg/kg with ICR mice is 74%; in the assay with C57BL/6J mice it was 70%.
On the same counts, the results for `Cc1cc(OCC(C)(C)C(=O)O)ncc1-c1ccc(-c2ncc(C(C)(C)C(F)(F)F)[nH]2)c(F)c1` [Example 115] are 50% and 62%.
The corresponding values for `CC(C)(COc1ccc(-c2ccc(-c3ncc(CC4CC4)[nH]3)cn2)cc1)C(=O)O` [Example 27] are 69% and 66%.
The corresponding values for `CC(C)c1cnc(-c2ccc(-c3ccc(OCC(C)(C)C(=O)O)cc3)nc2)[nH]1` [Example 28] are 59% and 54%.
